`c1ccc(COc2cccc(-n3cnnn3)c2)cc1` gave a melting point of 85 to 86 °C.
With `COc1ccc(OC(N)=O)cc1` the melting point was over 300 °C.
For `COc1cc(CN2CCN(Cc3ccc(NC(=O)C4=Cc5cc(-c6ccc(C)cc6)ccc5CC4)cc3)CC2)cc(OC)c1OC`, the melting point was 143 to 144 °C.
Work on `O=C(CC1CCCCCC1=O)c1ccccc1` (stereo not given) yielded a melting point of 42 to 44 °C.
`Cc1c(NC(=O)c2ccc(-c3ccc4c(c3)OCCO4)cc2)ccc2cc(CN3CCCC3)cnc12` showed a melting point of 187 to 188 °C.
`COCCOc1cc2c(Nc3ccc(Sc4nccn4C)c(Cl)c3)c(C#N)cnc2cc1OCCCN(C)C` showed a melting point of 194 to 203 °C.
With `c1ccc2cc(-c3nc(COc4ccc(CCCn5ccnc5)cc4)co3)ccc2c1` the melting point was 131 to 132 °C.
In the case of `CCCCOc1cc(C(=O)O)cc([N+](=O)[O-])c1C(=O)c1ccc(Cl)cc1`, the melting point is reported as 180 to 182 °C.
`COC(=O)[C@@H]1Cc2cc(Cl)c(Cl)cc2[C@@H](NC(N)=O)C1` (relative stereo) showed a melting point of 227 to 229 °C.
Work on `CC(=O)C(Cc1nsc2ccc(-n3c(=O)cc(C(F)(F)F)n(C)c3=O)cc12)C(=O)O` (stereo not given) yielded a melting point of 191 to 193 °C.
Molecule `COC(=O)c1ncn2c1CN=C(c1ccccc1F)c1cc(Cl)ccc1-2` has a melting point of 179 to 181 °C.
In the case of `c1ccc(C2CN3CCN=C3S2)nc1` (stereo not given), the melting point is reported as 70 °C.
`COC(=O)/C(C)=C1\CN2C(=O)CC2O1` (stereo not given) showed a melting point of 90 to 91 °C.
`N#CCc1c[nH]c2ccc(NC(=O)Nc3ccccc3)cc12` gave a melting point of 217 to 219 °C.
`COc1ccc(C2=NN(C3CCN(CC(N)=O)CC3)C(=O)C(C)(C)C2)c2c1OC(C)(C)C2` gave a melting point of 215 to 216 °C.
In the case of `Cc1[nH]c(C=O)c(C)c1C(=O)NCCC1CCCN1C` (stereo not given), the melting point is reported as 143 to 149 °C.
`CN1CCc2cc([N+](=O)[O-])c(O)cc2C(c2ccc3c(c2)CCC3)C1` (stereo not given) gave a melting point of 58 to 63 °C.
In the case of `Cn1cc(-c2ccccc2)c(=O)c(-c2cc(C(F)(F)F)ccc2Cl)c1`, the melting point is reported as 150 to 152 °C.
Molecule `O=C1Cc2cccc(Oc3ccccc3)c2N1` has a melting point of 135 to 146 °C.
For `COC(=O)Cc1ccc(CNC(=O)C2Cc3ccccc3N2S(=O)(=O)c2ccc(-c3cccc(C(F)(F)F)c3)cc2)c(F)c1` (stereo not given), the melting point was 50 to 57 °C.
`CCCCOc1ccc(S(=O)(=O)C2(C(=O)O)CCN(Cc3ccc(Cl)c(Cl)c3)CC2)cc1` showed a melting point of 257 °C.
Molecule `COCn1nccc1C(=O)c1cc2c(c(Cl)c1Cl)OC(C(=O)O)O2` (stereo not given) has a melting point of 168 to 170 °C.
For `O=S(=O)(NCC1CCN(C[C@H]2COc3ccc(Cl)cc3O2)CC1)c1ccc(Cl)cc1`, the melting point was 152 to 154 °C.
Work on `CC1(C)C=C(n2cncn2)c2cccc(OCc3c(Cl)ccc(S(=O)(=O)N4CCC[C@H]4C(=O)O)c3Cl)c2N1` yielded a melting point of 146 °C.
`C=C1c2ccccc2CC(=NO)Cc2ccccc21` gave a melting point of 119 to 123 °C.
`COc1cc2c(cc1Nc1ncc(Cl)c(Nc3ccc(N4CCOCC4)cc3)n1)CCN(CC(=O)N(C)C)CC2` showed a melting point of 227 to 242 °C.
For `OCc1cccn2cc(-c3ccccc3)nc12`, the melting point was 85 to 87 °C.
Molecule `CCC(=O)C(=Cc1ccc(C#N)cc1)C(=O)CC` has a melting point of 59 to 60 °C.
With `CCOC(=O)C1=C(CCl)N2CCOC2(C)C(C(=O)OC)C1c1ccccc1Cl` (stereo not given) the melting point was 142 to 143 °C.
Work on `O=C(NC(CS)Cc1ccccc1)N1CCCC1` (single isomer, unassigned; (+)) yielded a melting point of 92 to 94 °C.
Molecule `O=C(c1cccnc1)c1cc2cc(Br)ccc2s1` has a melting point of 147 to 148 °C.
With `Nc1cc(Oc2ccc(NC(=O)Nc3ccc(-c4cccnc4)c(C(F)(F)F)c3)cc2)ncn1` the melting point was 132 to 135 °C.
`COc1nc(C)nc(NC(=O)NS(=O)(=O)c2c(Cl)cccc2C(C)F)n1` (stereo not given) gave a melting point of 181 to 183 °C.
Molecule `CCCCCS(=O)(=O)NC(=O)/C=C/c1ccc(OCCOC)cc1Cc1ncc(Br)s1` has a melting point of 88.5 to 89.1 °C.
Work on `N#CC(C#N)=C1c2ccccc2-c2c(C(=O)OCCc3ccccc3)cccc21` yielded a melting point of 115 to 117 °C.
For `CC(Oc1ccc(-c2ccc(-c3c(Cc4ccccc4)oc4ccccc34)cc2)cc1)C(=O)O` (stereo not given), the melting point was 112 to 114 °C.
With `CC(C)(C)OC(=O)COc1ccc(-c2c(Cl)c(CN3C(=O)CCC3=O)nc3sc4c(c23)CCS(=O)(=O)C4)cc1` the melting point was 204 to 205 °C.
`CSCc1c(C(F)(F)F)nn(C)c1O` showed a melting point of 123 to 124 °C.
`O=C1c2ccccc2C(O)(c2ccccc2)N1CCc1ccccc1F` (stereo not given) gave a melting point of 208 °C.
Work on `Cc1cc(C)c(C(=O)COc2ccc(C(=O)C(=O)O)cc2)c(C)c1` yielded a melting point of 144 to 145 °C.
`COC(=O)CCc1cc(F)ccc1C(=O)CCCNC(C)=O` gave a melting point of 39 to 40 °C.
In the case of `CCCCCCCCCCCCCCCCCCOc1cc(OCCCOc2ccc(C(C)(C)C)cc2)cc(N(CC(=O)O)CC(=O)O)c1`, the melting point is reported as 99 to 101 °C.
Molecule `CC(C)[C@H](NC(=O)N1CCOCC1)C(=O)N[C@@H](Cc1ccccc1)C[C@H](O)[C@H](Cc1ccccc1)NC(=O)[C@@H](NC(=O)N1CCOCC1)C(C)C` has a melting point of 198 to 201 °C.
Work on `CCc1nn(COC(N)=O)c(CC)c1Cc1cc(Cl)cc(Cl)c1` yielded a melting point of 153 to 155 °C.
Molecule `CCCOc1ccc(-c2ccc(N)nn2)cc1OC` has a melting point of 147 °C.
Work on `CC(=O)NNc1nnc(-c2ccccc2)c(-c2ccccc2)n1` yielded a melting point of 166 to 168 °C.
With `Oc1nc(-c2ccccc2)sc1CCc1ccccc1` the melting point was 127 to 128 °C.
Molecule `FC(F)(F)C(F)(F)CCCSCCCCCOc1ccc(C2=C(c3ccccc3)CCCc3ccccc32)cc1` has a melting point of 84 to 85 °C.
Molecule `CC(C)c1noc(-c2ncn3c2[C@@H]2CCCN2C(=O)c2c(Cl)cccc2-3)n1` has a melting point of 187 to 188 °C.
For `O=C(c1ccccc1)N1CCNc2ncccc21`, the melting point was 166 to 168 °C.
In the case of `CCCc1c(OCCCOc2cc(NC(=O)c3nnn[nH]3)c(C)cc2Br)ccc(C(C)=O)c1O`, the melting point is reported as 63 to 65 °C.
With `O=C(O)CCCN1C(=O)c2ccc([N+](=O)[O-])cc2C1=O` the melting point was 176 to 178 °C.
`O=C1CCC(N2Cc3c(OCc4ccc(CN5CCN(S(=O)(=O)c6ccccc6)CC5)cc4)cccc3C2=O)C(=O)N1` (stereo not given) showed a melting point of 220 to 222 °C.
For `Cc1c(C(=O)O)oc2ccc(Br)c(OC(C)C)c12`, the melting point was 182 to 184 °C.
`NS(=O)(=O)c1ncnc2c1ccn2C1CC(O)C(CO)O1` (stereo not given) showed a melting point of 175 to 177 °C.
Molecule `CC(=O)N1CCC(C(=O)N(CCCN2CCC(Cc3ccccc3)CC2)c2ccc(C)c(Cl)c2)CC1` has a melting point of 96 to 99 °C.
For `CCCCOc1ccc(C(=O)N2CCCCc3sccc32)cc1`, the melting point was 87 to 90 °C.
For `CCc1[nH]n(C2CCCC2)c2nc(Cc3ccccn3)nc(=O)c1-2`, the melting point was 120 to 122 °C.
With `Cc1ccc(-c2nc3ccc(CN4CCN(C)CC4)cc3[nH]2)cc1C#Cc1cnc2cccnn12` the melting point was 114 to 115 °C.
With `NNN=CNCCC(=O)O` the melting point was 177 to 179 °C.
For `COC(=O)C1(C(F)(F)CCCCCOc2ccc(Cl)cc2)CO1` (stereo not given), the melting point was 54 to 55 °C.
In the case of `CCc1nnc(-c2ccc(OC)cc2)n1-c1ccc(OC)cc1`, the melting point is reported as 122 °C.
With `COc1cc(C(C#N)CCC(C#N)c2cc(OC)c(OC)c(OC)c2)cc(OC)c1OC` (stereo not given) the melting point was 173 to 174 °C.
Molecule `N#Cc1ccc(NS(=O)(=O)c2ccc(Cl)cc2)c([N+](=O)[O-])c1` has a melting point of 193 to 195 °C.
`Cc1cc(C(=O)NCO)ncc1C(c1c(F)ccc(F)c1F)S(=O)(=O)c1ccc(F)c(F)c1` (stereo not given) gave a melting point of 119 to 120 °C.
With `COC(=O)/C=C/c1cccc(-c2c(CC(=O)Nc3ccc(Cl)cc3C(F)(F)F)c(=O)oc3cc(Cl)c(C)cc23)c1` the melting point was 202 to 204 °C.
Work on `Cc1nc(C(N)=O)n(-c2ccc(Cl)c(Cl)c2)c1Cl` yielded a melting point of 144 to 145 °C.
Work on `CCCc1c(OCCCOc2cccc3ccccc23)ccc2c1OC(CCC(=O)O)(CCC(=O)O)CC2=O` yielded a melting point of 164 to 167 °C.
`COC(=O)C(C)(C)Sc1cccc(OCc2ccc(-c3ccc([N+](=O)[O-])cc3)o2)c1` showed a melting point of 81 to 82 °C.
`O=C(NCCN1CCN=C1c1ccccn1)Nc1ccc(C(=O)O)cc1` showed a melting point of 220 to 223 °C.
With `CC(C)(Oc1ccc(CC(=O)Nc2ccccc2)cc1)C(=O)O` the melting point was 198 °C.
`CCOC(=O)c1cnc2c(c(C)nc3cc(C)nn32)c1Cl` gave a melting point of 143 to 145 °C.
Work on `CC1(C)Oc2ccncc2[C@@H](N2CCCC2=O)[C@@H]1O` (relative stereo) yielded a melting point of 253 °C.
`NS(=O)(=O)c1ccc(Nc2nc(OCC3CC=CCC3)c3nc[nH]c3n2)cc1` (stereo not given) showed a melting point of 165 °C.
Work on `CCOC(=O)Cc1csc(-c2cc3cccc(N(C)S(=O)(=O)c4cccs4)c3[nH]2)n1` yielded a melting point of 117 to 118 °C.
Work on `CCOC(=O)c1cn(C)c2cc(C)sc2c1=O` yielded a melting point of 143 to 144 °C.
In the case of `COC(=O)c1ccc(-c2ccc(-c3ccc4c(c3)C(C)(C)CCC4(C)C)s2)cc1`, the melting point is reported as 126 to 129 °C.
For `CCCCn1c(=O)c(NC(=O)Nc2c(C(C)C)cc(CN)cc2C(C)C)c(-c2cccc(OC)c2)c2cccnc21`, the melting point was 186 to 187 °C.
For `CC(=O)NCC1CC(c2ccc(Br)cc2)=NO1` (stereo not given), the melting point was 198 to 199 °C.
Molecule `Cn1ncc(N)c1NCCO` has a melting point of 94 to 97 °C.
For `CCc1ccc(-c2ccc(C(=O)c3ccccc3)cc2)cc1`, the melting point was 106 to 108 °C.
For `Cn1nnc2ccc(C(c3cccs3)n3ccnc3)cc21` (stereo not given), the melting point was 157 °C.
With `Cc1cc(-c2cccc(S(F)(F)(F)(F)F)c2)c(S(C)(=O)=O)cc1C(=O)NC(=N)N` the melting point was 169 to 175 °C.
Work on `CC(=NC(C)c1ccc(Cl)cc1Cl)c1ccc(Cl)cc1Cl` (stereo not given) yielded a melting point of 77 to 85 °C.
`Nc1sc(-c2cccs2)c(CN(C2CCCCC2)C2CCCCC2)c1C(=O)c1ccc(Cl)cc1` showed a melting point of 197 to 199 °C.
With `Cc1ccc(S(=O)(=O)Cc2c(C#N)nn(-c3ccccc3)c2O)cc1` the melting point was 214 °C.
For `CCC(C)Cc1c(-c2ccc(C(N)=S)cc2Cl)c(C)nc2ncnn12` (stereo not given), the melting point was 173 to 177 °C.
In the case of `CCOC(=O)c1c(S(=O)C(C)C)c2cc(OCc3ccccc3)ccc2n1C` (stereo not given), the melting point is reported as 142 to 145 °C.
`O=[N+]([O-])c1cc(O)c(Br)cc1F` gave a melting point of 124 to 126 °C.
`CC(=O)Nc1cc(-c2c(-c3cccc(C)c3)nc3ccc(Cl)nn23)ccn1` gave a melting point of 228 to 229 °C.
For `Cc1c(C(=O)O)ncn1Cc1ccc2oc(-c3ccccc3-c3nnn[nH]3)c(Br)c2c1`, the melting point was 248 °C.
`O=c1oc2ccccc2n1Sc1ccc(Cl)cc1` showed a melting point of 134 to 137 °C.
`CS(=O)(=O)c1ccc(-n2nc(C(F)(F)F)cc2-c2ccc(-c3ccoc3)cc2)cc1` gave a melting point of 165 to 166 °C.
Work on `CC(=O)NCC1CN(c2ccc3c(c2)C(=O)CCCC3)C(=O)O1` (stereo not given) yielded a melting point of 120 to 121 °C.
`Cc1cccc(CC(=O)O)c1OCCCc1cn(-c2ccc(C(F)(F)F)nn2)nc1C(C)(C)C` showed a melting point of 96 to 97 °C.

— a melting point compilation (Tetko et al.; mined from patent text by program, amines drawn as free bases though some values may be those of a salt)
